Key:
[1] = system: patient-derived Meso92 cell line (biphasic MPM); assay: MTT cytotoxicity assay, 72 h, Meso92; format: cell-based, human; conditions: exposure time 72 h
[2] = system: human nonmalignant mesothelioma cell line Met5A; assay: MTT cytotoxicity assay, 72 h, Met5A; format: cell-based; conditions: exposure time 72 h
Description: Cell lines and culture conditions
Mouse malignant mesothelioma cancer cell line AB12, human nonmalignant mesothelioma cancer cell line Met5A (mesothelial cells), mouse macrophage cell line J774 and human monocytic cell line THP-1 were obtained from American Type Culture Collection (ATCC) (Rockville, MD, USA). Human malignant mesothelioma cell lines VMC23 (epithelial), Meso82 (sarcomatous), Meso92 (biphasic), were kindly provided by Prof. Walter Berger (Medical University of Vienna). All cells except for J774 were cultured in RPMI and J774 cells were cultured in DMEM. Both types of media were supplemented with 10% FBS and 1% penicillin-streptomycin (10,000 U/mL). Cells were grown in tissue culture flasks (75 cm2 and 25 cm2, SPL Life Sciences Co., Ltd., Korea). All cell lines were grown at 37 °C in a humidified atmosphere of 95% air and 5% CO 2 and passaged when they reached 80–90% confluency. All Au stock solutions were prepared in 1% DMSO in the respected medium, ensuring that cell viability was not inhibited. The Au concentration in the stock solutions was confirmed through inductively coupled plasma optical emission spectrometry. The stock solution of pemetrexed (10 mM) was prepared in Milli -Q water.
Inhibition of c ell viability assay
(§1) The cytotoxicity of compounds was determined using an MTT colorimetric test. The cells were harvested from culture flasks by trypsinization and seeded into Cellstar 96 -well microculture plates (Greiner Bio -One) at the seeding density of 6000 cells per well (6 × 10^4 cells/mL). After
(§2) the cells were allowed to resume exponential growth for 16 h, they were exposed to drugs at
(§3) different concentrations in media for 72 h. The drugs were diluted in a complete medium at the desired concentration added to each well (100 μL) and serially diluted in other wells. After exposure for 72 h, the media was replaced with MTT in media (5 mg/mL, 100 μL/well) and
(§4) incubated for an additional 50 min. Subsequently, the medium was aspirated, and the purple formazan crystals formed in viable cells were dissolved in DMSO (100 μL/well). Optical densities were measured at 570 nm using a BioTek Synergy H1 microplate and MultiskanTM SkyHigh plate readers. The quantity of viable cells was expressed in terms of treated/control (T/C) values in comparison to untreated control cells, and 50% inhibitory concentrations (IC 50) were calculated from concentration-effect curves by interpolation. An evaluation was based on means from at least three independent experiments, each comprising three replicat es per

[3] = system: AB12 cells phagocytosed by J774 macrophages; assay: Phagocytosis assay, flow cytometry; format: cell-based, mouse; conditions: AB12 treated 100 min at 5 × IC50 (72 h), 16 h with J774 macrophages
Description: page 21: incubated for an additional 50 min. Subsequently, the medium was aspirated, and the purple formazan crystals formed in viable cells were dissolved in DMSO (100 μL/well). Optical densities were measured at 570 nm using a BioTek Synergy H1 microplate and MultiskanTM SkyHigh plate readers. The quantity of viable cells was expressed in terms of treated/control (T/C) values in comparison to untreated control cells, and 50% inhibitory concentrations (IC 50) were calculated from concentration-effect curves by interpolation. An evaluation was based on means from at least three independent experiments, each comprising three […] concentration level. For macrophage analyses, the acute monocytic leukemia -derived THP-1 cell line (ATCC) was used as a model. 1 × 104 THP-1 cells were seeded per well in 96-well plates in RPMI-1640 with 10% FCS and treated for 24 h with 75 nM phorbol 12-myristate 13-acetate (PMA, Sigma- Aldrich) to induce M0 macrophage differentiation. After the differentiation period, PMA was replaced by fresh culture medium to recover for 2h. Afterwards increasing concentrations of 1G, 5A, 5B and 5G were added for a 72-h continuous drug exposure assay. In parallel, the […] were allowed to attach for 24 h. Gold compounds were added to the cells as described for the THP-1 model above. After the incubation period of 72 h, cell viability was determined by an MTT-based assay (EU4U, Biomedica) following the instructions of the manufacturer. DMSO had not impact on the cell viability at the concentrations used. Flow cytometry experiments Phagocytosis assay […] with RPMI, centrifuged (300 × g, 5 min) and labelled with CellTracker Red CMTPX Dye (0.72 μM for 5 × 10^5 cells) at 37°C for 30 minutes in 1 ml of serum -free RPMI. Following S21 page 22: centrifugation of the cells (300 × g, 5 min), 5 ml of fresh RPMI was introduced, and the cells were seeded at a density of 5 x 10^5 cells per well into Cellstar 6-well plates (Greiner Bio-One) (1 ml per well). J774 macrophages (70-80% confluence in a T75 flask) were detached by scraping, centrifuged (300 × g, 5 min). The medium was substituted with 1 ml of DMEM containing CellTracker Green CMFDA (1 μM) and the J774 macrophages were stained at 37°C for 30 minutes. Following centrifugation of the J774 macrophages (300 × g, 5 min), 5 ml of fresh DMEM was introduced, and the macrophages were seeded into a 100 cm2 petri dish (SPL Life Sciences, Korea). After 24 h, the media in AB12 cells was replaced with 1 ml of fresh […] for 100 minutes. After removing the drug-containing media, the cells were trypsinized (0.5 ml), neutralized with 1 ml of RPMI, centrifuged (300 × g, 5 min) and counted. From each sample, […] cells into 6-well plates. AB12 cells and J774 macrophages were co-incubated for 16 h at 37°C and 5% CO2, detached by scraping, centrifuged (300 × g, 5 min), and the pellets were resuspended in PBS for immediate analysis using a CytoFLEX Flow Cytometer (Beckman Coulter, USA). The percentage of phagocytosis was determined by calculating the number of double-positive macrophages (Q2) over the total number of macrophages (Q2 + Q3). […] Annexin V/PI assay AB12 cells were seeded into Cellstar 6-well plates (Greiner Bio-One) at a density of 5 × 10^5 cells/well (1 ml per well). […] The medium was removed and cells were washed with PBS (2 × 1 mL). Afterwards the cells were […] S22

[4] = system: human malignant mesothelioma cell line LO68; assay: MTT cytotoxicity assay, 72 h, LO68; format: cell-based; conditions: exposure time 72 h
[5] = system: murine malignant mesothelioma cell line AB12; assay: MTT cytotoxicity assay, 72 h, AB12; format: cell-based, mouse; conditions: exposure time 72 h
[6] = system: human malignant mesothelioma cell line JU77; assay: MTT cytotoxicity assay, 72 h, JU77; format: cell-based; conditions: exposure time 72 h
[7] = system: patient-derived VMC23 cell line (epithelioid MPM); assay: MTT cytotoxicity assay, 72 h, VMC23; format: cell-based, human; conditions: exposure time 72 h
[8] = system: calreticulin (CRT) in AB12 cells; assay: CRT detection, flow cytometry; format: cell-based, mouse; conditions: AB12, 5 × IC50 (72 h), 120 min
Description: page 23: concentrations for 100 min at 37 °C. After the treatment, the supernatant was collected in 2 mL microtubes, centrifuged (300 × g, 5 min) and the media was removed. The adherent cells were then trypsinized with 500 μL of trypsin at 37 °C for 5 min. Next, 1 mL of medium was added to neutralize trypsin and the resulting cell suspension was combined with the supernatant. The wells were washed with 200 μL of PBS, which was also combined with the supernatant. The combined solutions were centrifuged (300 × g, 5 min), and the resulting pellets were washed with PBS (2 × 1 mL) and resuspended in 200 μL of Annexin V binding buffer. […] Cell death was evaluated by flow cytometry using a CytoFLEX Flow Cytometer equipped with a 488 nm laser and a 638 nm laser (Beckman Coulter, Brea, CA, USA). The cells were excited by the 488 nm laser, and fluorescence emissions were detected at 525/40 nm for FITC (Annexin V) and at 610/20 nm for ECD (PI). […] The percentage of necrosis was determined by calculating the sum of cells in Q1 and Q2. […] Next, cells were incubated with CRT antibody conjugated with AlexaFluor S23 page 24: 488 (62304S, Cell Signaling Technology) at 4 °C overnight, washed twice with PBS, reconstituted in 500 µL of PBS and analyzed by flow cytometry using a CytoFLEX Flow Cytometer equipped with a 488 nm laser and a 638 nm laser (Beckman Coulter, Brea, CA, USA). […]

[9] = system: patient-derived Meso84 cell line (sarcomatoid MPM); assay: MTT cytotoxicity assay, 72 h, Meso84; format: cell-based, human; conditions: exposure time 72 h
Description: Human malignant mesothelioma cancer cell lines JU77 and LO68 were obtained from Cell Bank Australia (Children's Medical Research Institute, Westmead, Australia). Mouse malignant mesothelioma cancer cell line AB12, human nonmalignant mesothelioma cancer cell line Met5A (mesothelial cells), mouse macrophage cell line J774 and human monocytic cell line THP-1 were obtained from American Type Culture Collection (ATCC) (Rockville, MD, USA). Human malignant mesothelioma cell lines VMC23 (epithelial), Meso82 (sarcomatous), Meso92 (biphasic), were kindly provided by Prof. Walter Berger (Medical University of Vienna). All cells except for J774 were cultured in RPMI and J774 cells were cultured in DMEM. Both types of media were supplemented with 10% FBS and 1% penicillin-streptomycin (10,000 U/mL). Cells were grown in tissue culture flasks (75 cm2 and 25 cm2, SPL Life Sciences Co., Ltd., Korea). All cell lines were grown at 37 °C in a humidified atmosphere of 95% air and 5% CO 2 and passaged when they reached 80–90% confluency. All Au stock solutions were prepared in 1% DMSO in the respected medium, ensuring that cell viability was not inhibited.
as §1, §2, §3, §4

[10] = system: AB12 cells in BALB/c mice; assay: In vivo vaccination model; design: species or system mouse; conditions: within the first 30 days after vaccination, n = 8
Description: Initially, AB12 cells underwent pretreatment with varying concentrations of Au(III) complexes, and the induced cell death and release of desired ICD biomarkers were monitored over time. Upon reaching a cell death rate of 65%–75%, BALB/c mice (n = 8) were subcutaneously injected in the left flank with a vaccine containing 3 × 10^5 of live/dying/dead cells, while the vehicle group received injections of PBS. Seven days postvaccine administration, the immunized mice were rechallenged by inoculating the same number of live AB12 cells (without any prior treatment) into the right flanks (Figure 5A). The progression of tumor growth on the right flanks was monitored using a caliper.
AB12 cells were seeded into Cellstar 24-well plates (Greiner Bio-One) at a density of 1.8 × 104
cells/ml (1 ml per well) and allowed to grow exponentially for 16 hours. Subsequently, the
medium was replaced with 1 ml of fresh medium containing compounds of interest at
predetermined concentrations (with a minimum of 4 wells per treatment condition). These
concentrations were selected to induce 65-75% cell death.
Subsequently, the culture
medium was aspirated, and the cells were washed twice with 1 mL of PBS. The cell
concentration was adjusted to 3 × 10^5 cells (including dead/dying/live cells) per 100 μL of PBS,
and the ratio of dead/live cells was assessed using the Invitrogen Countess 3 cell counter. In
the subsequent experiment, BALB/c mice (8 mice per group) were subcutaneously injected
with 0.1 mL of AB12 cells (3 × 10^5 cells/mL, including dead/dying/live cells) or the
corresponding vehicle (PBS) on the left flank. Tumor growth was monitored daily.
After 7 days, the mice were subcutaneously injected with
0.1 mL of AB12 cells (3 × 10^5 cells/mL, live cells) on the right flank. Regular measurements
of body weights and tumor sizes were taken. Mice that developed palpable tumors were
euthanized for further analysis.

[11] = system: calreticulin (CRT) in AB12 cells; conditions: AB12, 5 × IC50, 120 min
Description: emission was detected at 525/40 nm for FITC (CRT).
Confocal microscopy experiments
AB12 cells were seeded into confocal dishes (Biosharp) at a density of 3 × 10^5 cells/dish (1
mL per dish). The cells were allowed to resume exponential growth for 16 h. Afterwards, the
cells were incubated with a fresh medium containing compounds at their respective 5 × IC50
concentrations for 2 h at 37°C. After the treatment, the dishes were washed with 1 ml of PBS,
fixed in 4% paraformaldehyde in PBS at r. t. for 20 min and washed twice with 1 mL of PBS.
The dishes were then incubated with CRT antibody conjugated with Alexa Fluor 488 (1:200 in
the dishes were incubated with Wheat Germ Agglutinin conjugated with Alexa Fluor 633 dye
(W21404, Invitrogen) at r. t. in darkness for 30 min, washed with 1 mL of PBS, stained with
propidium iodide (PI) for 10 min at r. t. in darkness and washed with 1 mL of PBS. Samples
were stored in 1 mL of PBS. The confocal images were acquired by Laser Confocal Scanning

[12] = Aqueous stability by RP-HPLC in 1:1 DMSO:H2O over 72 h; format: physicochemical; conditions: room temperature
Description: The aqueous stability of the Au(III)–DTC complexes was assessed by monitoring their RP-HPLC profiles in a 1:1 DMSO:H2O mixture at room temperature over a 3-day period (Supplementary Figures 112–146).
Determination of the purity of cyclometalated Au( III) complexes was performed using analytical HPLC on a Shimadzu Prominence System equipped with a DGU -20A3 Degasser, two LC-20AD Liquid Chromatography Pump, a SPD-20A UV/Vis Detector and a Shim Pack GVP-ODS 2.0 mm 18 column ([…], 120Å, 250 mm × 4.60 mm i.d.). The analysis was conducted at r.t. with a flow rate of 1.0 mL/min and detection at 254 and 280 nm. Mobile phase A was H2O + 0.1% Trifluoroacetic acid (TFA) while mobile phase B is ACN + 0.1% TFA. The gradient program parameters were as follows: mobil e phase B was increased from 30 to 95% over 30 min. 95% mobile phase B was maintained for 10 min, 95 to 30% over 5 min, and finally returned to 30% for 10 min for the next analysis. LogP values of the complexes were calculated based on the HPLC retention times derived from the calibration standard curve. The calibration standard curve was established using 2-butanone, phenylacetonitrile, anisole, ethyl benzoate, benzophenone, diphenyl ether and triphenylamine. To conduct an aqueous stability study, the HPLC profiles of the sample stock solutions were diluted to a 1:1 ratio of DMSO to […]
water. […]

BALB/c mice = conditions: i.p., 12 injections, 5F 2.5 mg/kg

## N.N.[Cl][Pt][Cl] [Cisplatin, cisplatin, reference compound]
[1]
  IC50: 4000 ± 900 nM
[2]
  IC50: 2000 ± 500 nM
[3]
  phagocytosis / ICD response (in words): failed to initiate any ICD response
[4]
  IC50: 20000 ± 6000 nM
[5]
  IC50: 4500 ± 800 nM
[6]
  IC50: 4200 ± 500 nM
[7]
  IC50: 3600 ± 1000 nM
[8]
  CRT expression (in words): no changes in CRT expression
[9]
  IC50: 17000 ± 2000 nM

## COc1cccc2c1C(=O)c1c(O)c3c(c(O)c1C2=O)C[C@@](O)(C(=O)CO)C[C@@H]3O[C@H]1C[C@H](N)[C@H](O)[C@H](C)O1 [doxorubicin]
physchem
  chromatographic logP: 0.68

## CCCC[N+](CCCC)=C1[S][Au-]2([S]1)[c]1ccccc1C(OC)c1cccc[n+]12.F[P-](F)(F)(F)(F)F (racemic) [4C]
[1]
  IC50: 4500 ± 800 nM
[10]
  mice that developed tumors after vaccination: ≈ 50%
[2]
  IC50: 3000 ± 700 nM
[3]
  phagocytosis rate: 37% ± 12%
[4]
  IC50: 3100 ± 300 nM
[5]
  IC50: 3100 ± 400 nM
[6]
  IC50: 1600 ± 100 nM
[11]
  CRT translocation, confocal microscopy: translocation of CRT to the plasma membrane
[7]
  IC50: 2500 ± 200 nM
[12]
  hydrolysis over the 72-h period: less than 10%
[12]; 24 h
  minor RP-HPLC peak, share of the total area after 24 h: 2%
[12]; 72 h
  minor RP-HPLC peak, share of the total area after 72 h: 8%
[9]
  IC50: 2700 ± 800 nM

## F[P-](F)(F)(F)(F)F.c1cc[c]2c(c1)Nc1cccc[n+]1[Au-]21[S]C(=[N+]2CCCCC2)[S]1 (centres unmarked) [5H]
BALB/c mice; 5A and 5H 4 mg/kg
  signs of toxicity, daily injections: led to toxicity in mice
BALB/c mice; 5H 4 mg/kg
  deaths, daily injections: death of two mice
[1]
  IC50: 820 ± 180 nM
[2]
  IC50: 130 ± 10 nM
[4]
  IC50: 440 ± 90 nM
[5]
  IC50: 100 ± 10 nM
[6]
  IC50: 400 ± 90 nM
[7]
  IC50: 940 ± 270 nM
[9]
  IC50: 100 ± 20 nM

From article PMC11887451, “Leveraging Immunogenic Cell Death to Enhance the Immune Response against Malignant Pleural Mesothelioma Tumors” (Journal of the American Chemical Society, 2025)
